Source: patent US20110039762A1, “TARGETED ANTIMICROBIAL MOIETIES” (C3 JIAN, INC., priority 2009, published 2011)
“Also recorded” adds a separate entry of the source. Square brackets hold non-standard residues; d marks the D form. Ends that are not written are not given here. Aib = CC(C)(N)C(=O)O

System: microorganisms (e.g., bacteria, yeasts, fungi)
Assay: Targeting peptide binding to target microorganisms (Table 3)
Details: peptide binding in aqueous buffers varied by peptide solubility; preferably 1x PBS

Row | Substance | Target(s) (microorganisms bound by the targeting peptide)
1 | PF-765 (YLYWEVEHKPIIAKRDAYYAQLRKQKEIEEGA; Peptide with targeting and/or antimicrobial activity) | S. epidermidis and M. luteus and E. coli and MRSA and E. faecalis and C. jeikeium
2 | PF-766 (DAYYAQLRKQKEIEEGA; Peptide with targeting and/or antimicrobial activity) | S. epidermidis and M. luteus and C. albicans and MRSA and E. faecalis and C. jeikeium
3 | PF-767 (DGKQGEPVALKPTDN; Peptide with targeting and/or antimicrobial activity) | S. epidermidis and M. luteus and E. coli and MRSA and S. pneumoniae and E. faecalis and C. jeikeium
4 | PF-768 (GFRGGKRGGARG; Peptide with targeting and/or antimicrobial activity) | S. epidermidis; also recorded: S. pneumoniae; also recorded: E. faecalis; also recorded: C. jeikeium
5 | PF-772 (TKESSS; Peptide with targeting and/or antimicrobial activity) | S. epidermidis and C. albicans and MRSA and S. pneumoniae and C. jeikeium
6 | PF-773 (TLKESK; Peptide with targeting and/or antimicrobial activity) | S. epidermidis; also recorded: C. albicans; also recorded: C. jeikeium
7 | PF-777 (PGADGKLAEASAAIARLVRS; Peptide with targeting and/or antimicrobial activity) | Mycobacteria spp.
8 | PF-778 (MNLILTAHGT; Peptide with targeting and/or antimicrobial activity) | Mycobacteria spp.
9 | PF-779 (IYGDFFNFYLCDISLKVNGLQPGGPVRTVKLFGQPTGRCTPQ; Peptide with targeting and/or antimicrobial activity) | Mycobacteria spp.
10 | PF-780 (AVYDALVALAAAEHRAELATRDARAKDTYEKIGVHVVVAA; Peptide with targeting and/or antimicrobial activity) | Mycobacteria spp.
11 | PF-781 (PLVVVNHRRAERSRG; Peptide with targeting and/or antimicrobial activity) | Mycobacteria spp.
12 | PF-782 (TGPRRGIDLTSNRALSEVLDEGLELNSRK; Peptide with targeting and/or antimicrobial activity) | Mycobacteria spp.
13 | PF-783 (FTSEVRGVFTYRVNKAGLITNMRGYWNLDMMTFGNQE; Peptide with targeting and/or antimicrobial activity) | Mycobacteria spp.
14 | PF-784 (MAMTTVDNIVGLVIAVALMAFLFAALLFPEKF; Peptide with targeting and/or antimicrobial activity) | Mycobacteria spp.
15 | PF-785 (MRPQHSPAGKAFVVKKITHEQS; Peptide with targeting and/or antimicrobial activity) | Mycobacteria spp.
16 | PF-786 (LSERERRRLKRGII; Peptide with targeting and/or antimicrobial activity) | Mycobacteria spp.
17 | PF-787 (MTERQRRALLKQHPEVVSWSDYLEKRKRRTGTAG; Peptide with targeting and/or antimicrobial activity) | Mycobacteria spp.
18 | PF-788 (GLITVFAGTARILQLRRAAKKTHAAALR; Peptide with targeting and/or antimicrobial activity) | Mycobacteria spp.
19 | PF-789 (PRGAQSGHG; Peptide with targeting and/or antimicrobial activity) | Mycobacteria spp.
20 | PF-790 (PAGPDHLDQRDHR; Peptide with targeting and/or antimicrobial activity) | Mycobacteria spp.
21 | PF-791 (IFLTTQNTDYSEHNAA; Peptide with targeting and/or antimicrobial activity) | S. mutans
22 | PF-792 (ALHASGIQAI; Peptide with targeting and/or antimicrobial activity) | S. mutans
23 | PF-793 (YTQ[Aib]NNASAYAMLLTNKDTVP) | S. mutans
24 | PF-794 (NLYFENQGN; Peptide with targeting and/or antimicrobial activity) | S. mutans
25 | PF-795 (ALHKSGIQVIADWVPDQIYN; Peptide with targeting and/or antimicrobial activity) | S. mutans

Row | Substance | Target(s) (microorganisms bound by the targeting peptide)
26 | PF-796 (YTQSNIPTAYALMLSNKDSI; Peptide with targeting and/or antimicrobial activity) | S. mutans
27 | PF-797 (WYYFDNNGYM; Peptide with targeting and/or antimicrobial activity) | S. mutans
28 | PF-798 (ALHSKGIKVMADWVPDQMYA; Peptide with targeting and/or antimicrobial activity) | S. mutans
29 | PF-799 (YTHYNTALSYALLLTNKSSVP; Peptide with targeting and/or antimicrobial activity) | S. mutans
30 | PF-800 (WYYFDNNGYM; Peptide with targeting and/or antimicrobial activity) | S. mutans
31 | PF-C003 (FCSVDHDVITIAADHVKQGAEA; Peptide with targeting and/or antimicrobial activity) | A. naeslundii; also recorded: P. gingivalis; also recorded: S. mutans
32 | PF-C008 (AQPRRTWLVNFGEVPSPGLTNDGMPDH; Peptide with targeting and/or antimicrobial activity) | A. naeslundii
33 | PF-C034 (HPMPITVRSRKPGPLTAPSEH; Peptide with targeting and/or antimicrobial activity) | S. mutans; also recorded: E. coli
34 | PF-C045 (FREGMGWPLSNEGSPTAPLPKHRNQV; Peptide with targeting and/or antimicrobial activity) | A. naeslundii; also recorded: T. denticola
35 | PF-C050 (QGLARPVLRRIPL; Peptide with targeting and/or antimicrobial activity) | A. naeslundii; also recorded: S. mutans
36 | PF-C063 (SHFRKGD; Peptide with targeting and/or antimicrobial activity) | A. naeslundii; also recorded: F. nucleatum; also recorded: S. mutans
37 | PF-C068 (LNLFASI; Peptide with targeting and/or antimicrobial activity) | A. naeslundii; also recorded: F. nucleatum; also recorded: S. mutans
38 | PF-C080 (INIPGLF; Peptide with targeting and/or antimicrobial activity) | A. naeslundii; also recorded: F. nucleatum; also recorded: S. mutans
39 | PF-C093 (EKLGTMV; Peptide with targeting and/or antimicrobial activity) | A. naeslundii; also recorded: F. nucleatum; also recorded: S. mutans
40 | PF-C134 (NELMKYPATLTATATTPGIKYSHLCSVCL; Peptide with targeting and/or antimicrobial activity) | A. naeslundii; also recorded: F. nucleatum; also recorded: P. gingivalis; also recorded: S. mutans; also recorded: T. denticola
41 | PF-C160 (AASGFTYCASNGVWHPY; Peptide with targeting and/or antimicrobial activity) | F. nucleatum
42 | PF-C259 (AEIQPHCLSVL; Peptide with targeting and/or antimicrobial activity) | F. nucleatum; also recorded: S. mutans
43 | PF-C271 (FFPSYYSIIITYF; Peptide with targeting and/or antimicrobial activity) | A. naeslundii; also recorded: F. nucleatum; also recorded: P. gingivalis; also recorded: S. mutans; also recorded: T. denticola
44 | PF-C273 (KNMLKRRMKQKRLFDEEDRLRVLSKYTKSYY; Peptide with targeting and/or antimicrobial activity) | A. naeslundii; also recorded: P. gingivalis; also recorded: S. mutans; also recorded: T. denticola
45 | PF-C285 (FTIIELKKQKIKHGENNKKTAHPLNEPFCARA; Peptide with targeting and/or antimicrobial activity) | A. naeslundii; also recorded: F. nucleatum; also recorded: P. gingivalis; also recorded: S. mutans; also recorded: T. denticola
46 | PF-S004 (VLLNIFRTLLEFFSPSNAPGAEDVPLPDTQA; Peptide with targeting and/or antimicrobial activity) | S. epidermidis and MRSA and C. jeikeium
47 | PF-S007 (VVAGVVLLTALAVGSKRKEKKQIKEIQRLLAATR; Peptide with targeting and/or antimicrobial activity) | S. epidermidis and MRSA
48 | PF-S015 (IENLERGARRPP; Peptide with targeting and/or antimicrobial activity) | S. epidermidis and MRSA and C. jeikeium
49 | PF-S018 (GMPQIPRLRI; Peptide with targeting and/or antimicrobial activity) | S. epidermidis and M. luteus and C. albicans and MRSA and E. faecalis and C. jeikeium and C. jejuni
50 | PF-S023 (MAEDERRALKRRTNRGRTRTRKRITV; Peptide with targeting and/or antimicrobial activity) | S. epidermidis and MRSA
